Measurements from article PMC3983056 (PLoS Pathogens, 2014).
Values joined by “and” are separate entries in the source; they are usually repeats but may differ in a detail not shown here. Identical values can stand only once. Like-named read-outs stand apart in the source and are kept apart here.

Assays:
[1] = Compound-associated cytotoxicity in latently infected cells (Cell Titer Glo); type: cell-based, human; details: human, latently infected (NL4.3-Luc) primary CD4+ T cells, continuous 48 hours, 50% cell viability reduction, three donors, mean ± SD
Experimental: (§1) Total peripheral blood mononuclear cells (PBMCs) were obtained from healthy HIV-negative donors by leukapheresis (AllCells, Inc, Emeryville, CA). Naive CD4+ T cells were purified by negative selection using EasySep magnetic beads (StemCells, Inc, Vancouver, Canada) and cultured in RPMI with 10% fetal bovine serum (FBS), penicillin/streptomycin, 1% nonessential amino acids (Life Technologies, Carlsbad, CA), 1% sodium pyruvate (Life Technologies) and 495 nM beta-mercaptoethanol (Sigma Aldrich, St. Louis, MO) in a 37°C, 5% CO2 incubator. Purified naive CD4+ T cells were activated by incubation with anti-CD3/CD28 magnetic Dynabeads (1 bead: 2 cells ratio, Life Technologies), 1 µg/ml anti-IL-4 (R&D Systems, Minneapolis, MN), 2 µg/ml anti-IL-12p70 antibodies (R&D Systems), and 10 ng/ml TGF-β (R&D Systems) for 3 days, [59]. Following the removal of anti-CD3/CD28 beads and antibodies, cells were maintained in 30 U/ml IL-2 (Life Technologies) for 2 days. Cells were then infected with NL4.3-Luc in the presence of 50 µg/ml DEAE for 3 hours. Cells were maintained in the continued presence of 30 U/ml IL-2 throughout the infection and subsequent rest period with culture medium with fresh IL-2 replaced every 2–3 days. Seven days post-infection, 20 µl of latently infected cells were dispensed into 384 well plates using a MicroFlo dispenser (Biotek Insturments, VT) at 10,000 cells/well containing 100 nl of compound solutions delivered by the Echo acoustic-based liquid dispenser (Labcyte, Sunnyvale, CA). After a 48-hour incubation, 16 µl/well BriteGlo (Promega, Madison, WI) was added and luminescence measured using the Envision plate reader (Perkin Elmer, Waltham, MA). Compound-associated cytotoxicity was determined in latently infected cells in parallel with the virus activation assay. Cells were incubated with compounds for 48 hours at 37°C, and cell viability was determined using Cell Titer Glo reagent (Promega).

[2] = tested on: HIV expressing a luciferase reporter gene (NL4-3-Luc) in latently infected primary CD4 T cells; experiment: microbe, parasite or virus in culture; type: cell-based; details: continuous 48 hours, cells from three healthy donors, mean ± SD
Description: To assess clinically tested HDACi for their ability to activate HIV from latency, we first employed a previously described in vitro HIV latency model, [30] with several modifications to increase the sensitivity of detection. The assay involves freshly isolated naïve CD4 T cells from healthy donors polarized to a Th0 phenotype, which mimics memory CD4 T cells. These Th0 cells are then infected with HIV expressing a luciferase reporter gene and cultured for an additional 7 to 10 days until a latent infection is established.
as §1, with “Naive CD4+ T cells were purified by negative selection using EasySep magnetic beads (StemCells, Inc, Vancouver, Canada) and cultured in RPMI with 10% fetal bovine serum (FBS), penicillin/streptomycin, 1% nonessential amino acids (Life Technologies, Carlsbad, CA), 1% sodium pyruvate (Life Technologies) and 495 nM beta-mercaptoethanol (Sigma Aldrich, St. Louis, MO) in a 37°C, 5% CO2 incubator.” left out

[3] = tested on: latent HIV in resting CD4 T cells from HIV-infected patients on suppressive cART; type: cell-based; details: for HIV RNA avg: Figure 4, 25 nM PNB, one value per donor; for persistence of intracellular HIV RNA induction: pulse RMD 4 hours, VOR 24 hours, PNB 24 hours, 6 to 48 hours
Experimental: (§2) To examine the kinetics of HIV induction, we analyzed cell-associated viral RNA levels at 6, 12, 24, and 48 hours after treatment initiation.
(§3) Lysates were filtered through a Qiashredder (Qiagen).

[4] = tested on: total class I and II HDAC enzyme activity in resting CD4 T cells; details: pulse RMD 4 hours, VOR 24 hours, PNB 24 hours, 6 to 48 hours
Experimental: Resting CD4 T cells obtained from HIV-infected patients on suppressive cART were incubated with serial dilutions of HDACi in 96-well plates at 10,000 cells/well for indicated time and then lysed by repeated freezing and thawing. Total cellular HDAC activity was measured using the HDAC-Glo I/II assay kit (Promega) according to the manufacturer's protocol.

[5] = tested on: HIV; details: cited from earlier work
[6] = tested on: latent HIV in memory CD4 T cells from HIV-infected patients on suppressive cART
Description: We used HIV RNA in cell culture supernatants as a surrogate marker for virion release from treated cells. We assumed that extracellular virions would accumulate over the course of several days; therefore, the duration of culture was extended to 6 days to maximize assay sensitivity.
(§4) HIV-infected patients participating in the study were selected based on sustained plasma viral load suppression (<50 copies/ml for >12 months), CD4 counts (>350 cells/µL), and absence of co-infection with hepatitis B or C virus (Supplementary Table S1). Clinical laboratory results were reconfirmed 2 weeks before leukapheresis or blood draw. Leukapheresis was conducted for 3–4 hours, and samples were processed within 2 hours after collection. The leukapheresis product was diluted 1∶1 with PBS and layered over Ficoll for isolation of PBMCs. […] Resting CD4 T cells were isolated by first enriching total CD4 T cells (StemCell Technologies) and subsequently depleting HLA-DR-, CD25-, and CD69-positive cells via negative selection (Miltenyi Biotec, Auburn, CA).
(§5) To assess HIV activation by HDACi, up to 5 million CD4 T cells were plated in 24-well plates in 2.5 ml of media, supplemented with antiretrovirals (ARVs) (100 nM elvitegravir and 100–300 nM efavirenz) for the entire duration of culture incubation. HDACi were added at specified concentrations on day 0 and cells or culture supernatants were harvested for the analysis of HIV RNA at the indicated time points (6–48 hours or 6–7 days, respectively). For HDACi pulse treatment, cultures were washed twice using ARV-containing media at 4 or 24 hours after addition of HDACi and incubated with ARVs until harvest. To measure HIV RNA levels, 1 ml of culture supernatant was analyzed by a robotic COBAS AmpliPrep/TaqMan system (Roche Diagnostics, Indianapolis, IN), which extracts total nucleic acid and quantifies HIV RNA in copies per milliliter using the HIV-1 Test, v2.0 kit (Roche Diagnostics). For the measurement of cell-associated HIV RNA levels, cells were washed with PBS, counted, and lysed (Qiagen RLT buffer, 400 µl for every 2 million cells; Qiagen, Venlo, Netherlands). Lysates were filtered through a Qiashredder (Qiagen). Total RNA was prepared from the lysates (400 µl) using a robotic system (QIAsymphony, Qiagen) that incorporates a DNase I digestion step to eliminate cellular DNA. The resulting total RNA was eluted with 200 µl of buffer, diluted to 1 ml with nuclease-free water, and analyzed by COBAS using the HIV-1 Test v2.0 kit. Preparations of both cell-associated RNA and supernatant total nucleic acids were tested for potential contamination with HIV DNA and/or host DNA by performing the PCR amplification in the presence and absence of reverse transcriptase and by a detection of GAPDH-encoding host DNA sequence.
(§6) HIV RNA-induction experiments were conducted using 5 to 6 replicates for every experimental condition, including vehicle-treated controls. Fold induction in HIV RNA levels was calculated as a ratio of mean signals from compound-treated and vehicle (DMSO)-treated control samples from the same donor under identical conditions. […] For experiments using blood-derived resting CD4 T cells, culture supernatants from 3 replicate wells were combined and analyzed using the COBAS system.

[7] = tested on: latent HIV in memory CD4 T cells from HIV-infected patients on suppressive cART; experiment: Ex vivo activation of HIV transcription, cell-associated HIV RNA, memory CD4 T cells; type: cell-based; details: memory CD4 T cells, 1 µM VOR
Experimental: as §2, §3

[8] = tested on: HIV gag-pol RNA from resting CD4 T cells of a cART-suppressed patient; experiment: Single-genome sequencing of HIV RNA in culture supernatants; type: cell-based; details: 2 µM SAHA, day 7
Description: In parallel, we assessed the sequence diversity of HIV proviruses integrated in genomic DNA of resting CD4 T cells from the same culture.
Figure 8 Phylogenetic analysis of HIV sequences expressed ex vivo following the latency reversal. […] Single-genome sequencing was used to analyze patient HIV proviral DNA and plasma RNA at the initiation of treatment (day 0), together with the ex vivo induced HIV RNA in cell culture supernatants at the end of treatment (day 7). […] Identified HIV DNA and RNA sequences were aligned and the phylogenetic tree was constructed using Clustal W and MEAG5.
Single-genome sequencing of a portion of HIV-1 gag-pro-pol amplified from cell culture supernatants or cellular DNA extracts was performed as previously described [34]–[36]. Sequences were aligned using ClustalW and neighbor-joining phylogenetic analysis was performed using MEGA5. Trees were rooted on the subtype B consensus sequence (www.hiv.lanl.gov).

[9] = Cell culture medium protein binding by equilibrium dialysis, HPLC/mass spectrometry; type: in vitro ADME
[10] = tested on: latent HIV in resting CD4 T cells from HIV-infected patients on suppressive cART; experiment: Ex vivo release of extracellular HIV RNA into culture supernatants, resting CD4 T cells; type: cell-based; details: resting CD4 T cells
Experimental: as §4, §5, §6

[11] = tested on: latently infected cells expressing Bcl2; set-up: method as in PMID 22406268; details: in vitro latency model with ectopic Bcl2; cited from earlier work
[12] = tested on: memory CD4 cells from HIV-infected patients; experiment: Viability of primary memory CD4 cells (Cell TiterGlo, 6 days); type: cell-based, human; details: same incubation period (6 days), data not shown
Experimental: Cell viability was determined using a Cell TiterGlo reagent 6 days after the initiation of treatment and is expressed as a percentage of cell viability relative to control vehicle-treated memory CD4 cells from the same donors. The data represent mean +/− S.D. from three independent donors. (TIF) Click here for additional data file.

[13] = Human immunodeficiency virus 1, NL43, CD4+ T, 48 h

SMILES: CCN(CC)Cc1ccc2cc(COC(=O)Nc3ccc(C(=O)NO)cc3)ccc2c1 [Givinostat, givinostat]
- CC50 at 48 h [1]: 24000 nM
- EC50 [2, 13]: 95.8 ± 20.3 nM

SMILES: Nc1ccccc1NC(=O)c1ccc(CNc2nccc(-c3cccnc3)n2)cc1 [Mocetinostat, mocetinostat]
- CC50 at 48 h [1]: 10100 nM
- EC50 [2, 13]: 13600 nM

SMILES: Cc1[nH]c2ccccc2c1CCNCc1ccc(/C=C/C(=O)NO)cc1 [PNB, panobinostat]
- CC50 at 48 h [1]: > 2500 nM
- HIV RNA avg ([3]; 6 hours): 4342 copies/mil cells and 2414 copies/mil cells
- HIV RNA avg ([3]; 24 hours): 11600 copies/mil cells and 5606 copies/mil cells
- HIV RNA avg ([3]; 48 hours): 1815 copies/mil cells and 783 copies/mil cells
- persistence of intracellular HIV RNA induction ([3]; resting CD4 T cells): transient and diminished after 24 hours
- persistence of inhibition of cell-associated HDAC activity [4]: transient and decreased after 24 hours of incubation
- HIV transcription and viremia in peripheral blood ([5]; multiple doses of PNB, HIV-positive patients on suppressive cART): induce intracellular HIV transcription and low-level viremia
- EC50 [2, 13]: 10 nM
- EC50 [2]: 10.1 ± 1 nM

SMILES: CCCCc1nc2cc(/C=C/C(=O)NO)ccc2n1CCN(CC)CC [SB939, pracinostat]
- CC50 at 48 h [1]: > 50000 nM
- EC50 [2, 13]: 212 ± 14 nM

SMILES: O=C(CCCCCCC(=O)Nc1ccccc1)NO [VOR, suberoylanilide hydroxamic acid]
- CC50 at 48 h [1]: > 25000 nM
- HIV RNA in culture supernatants ([6]; memory CD4 T cells, 1 µM VOR continuous 6 days, two patients): no significant increase
- extracellular HIV RNA in culture supernatants ([6]; memory CD4 T cells, 0.5 and 1 µM VOR for 24 hours, day 6): lack of HIV RNA release
- cell-associated HIV RNA at 48 hours ([3]; resting CD4 T cells, 1 µM VOR): decreased by 48 hours to levels detected in vehicle-treated cells
- increase in intracellular HIV RNA levels versus vehicle ([3]; resting CD4 T cells, 1 µM VOR, 24-hour treatment): rapid, but transient and less-pronounced activation
- persistence of intracellular HIV RNA induction ([3]; resting CD4 T cells): transient and diminished after 24 hours
- cell-associated HIV RNA at 48 hours [7]: decreased by 48 hours to levels detected in vehicle-treated cells
- sequences of HIV RNA recovered in culture supernatants [8]: No HIV RNA sequences were recovered
- effect on total proviral DNA in peripheral CD4 T cells ([5]; multiple-dose (14-day) trial of VOR): no apparent effect
- mean increase in cell-associated HIV RNA levels ([5]; once-daily VOR for 14 consecutive days, 20 patients): ~3 fold
- mean increase in HIV RNA levels in resting CD4 T cells ([5]; single 400 mg dose of VOR, 8 HIV-infected patients on cART): 4.8 fold
- increases in the level of plasma viremia ([5]; single-dose and 14-day VOR studies): not observed
- fraction unbound [9]: 0.68
- extracellular HIV RNA versus untreated controls ([10]; 0.5 µM VOR continuous 6 days): did not increase extracellular HIV RNA significantly
- patient-derived cultures with measurable increase of extracellular HIV RNA ([10]; 1 µM VOR continuous 6 days): 3 of 7
- cell death after HIV activation [11]: does not lead to cell death

SMILES: CN(CC[C@H](N)CC(=O)N[C@H]1C=C[C@H](n2ccc(N)nc2=O)O[C@@H]1C(=O)O)C(=N)N [blasticidine]
- release of HIV RNA into cell culture supernatants ([6]; highly cytotoxic control, data not shown): did not lead to release of detectable levels of HIV RNA
- cell death [12]: > 80%
